In patent US6387936B1 (Aventis Pharma S.A., priority 1998, dated 2002):
Where “and” joins values, the source holds several entries; their conditions need not be identical. Equal values may be shown once. Each block holds one molecule with its values, some of them ahead of it.

Experiments:
[1] = system: parkinsonian marmosets (MPTP); assay: Dyskinesic score in MPTP-treated marmosets under chronic L-DOPA; format: in vivo, Callithrix jacchus; parameters: Total dyskinesic score, individual values / Total dyskinesic score, Average ± S.E.M.: scale not given here; settings: for Total dyskinesic score, Average ± S.E.M. / Total dyskinesic score, individual values: L-DOPA alone (Group 1 controls, sucrose); for Total dyskinesic score, individual values: marmosets 1-3
Experimental: The marmosets have free access to water and have available each day 35 g of food rich in carbohydrates, proteins and vitamins mixed with water, milk and sugar and also fresh fruit.
All the animals receive 3 injections of 2 mg/kg of MPTP by the subcutaneous route, on days 1, 7 and 32. On day 32, the animals are divided into 2 groups.
The dyskinesic score is determined according to a number of parameters and each with a different degree of intensity: […]

[2] = system: parkinsonian marmosets (MPTP); assay: Locomotory activity of MPTP-treated parkinsonian marmosets (image analyser, small/medium/large movements); format: in vivo, Callithrix jacchus; parameters: Locomotory activity, small movements / Locomotory activity, small movements, Average ± S.E.M. / Locomotory activity, medium movements / Locomotory activity, large movements / Time passed in moving, small movements: unit not given here; settings: for Time passed in moving, large movements, Average ± S.E.M. / Time passed in moving, medium movements, Average ± S.E.M. / Time passed in moving, small movements, Average ± S.E.M. / Time passed in moving, small movements / Time passed in moving, medium movements / Time passed in moving, large movements: 30 min after 1st daily L-DOPA
Experimental: On day 32, the animals are divided into 2 groups. […] The locomotory activity is determined by placing the animals in test cages (50 cm×83 cm×77 cm) which are equipped with 3 […] onto which the animals can jump as well as a Plexiglas door in front of which is placed a camera. […] The image is digitalized with a 800×600 definition with 256 levels of grey and the changes in pixels from one image to another are counted. This allows the locomotory activity to be classified into small, medium or large movements. […] The locomotory activity of the animals is measured during the exploration phase, that is to say immediately after they are placed in the test cage.

[3] = day 57 after 1st MPTP, 30 min after 1st daily L-DOPA
[4] = day 57 after 1st MPTP, 2 h after 1st daily L-DOPA
[5] = day 60 after 1st MPTP, 30 min after 1st daily L-DOPA
[6] = day 60 after 1st MPTP, 2 h after 1st daily L-DOPA
[7] = day 67 after 1st MPTP, 30 min after 1st daily L-DOPA
[8] = day 67 after 1st MPTP, 2 h after 1st daily L-DOPA
[9] = day 104 after 1st MPTP, 30 min after 1st daily L-DOPA
[10] = day 104 after 1st MPTP, 2 h after 1st daily L-DOPA
[11] = 30 min after the 1st administration of L-DOPA (25 mg/kg p.o.), Group 1, all intervals of 1 h
[12] = 30 min after the 1st administration of L-DOPA (25 mg/kg p.o.), Group 1 marmosets 1-3, interval 11-20 min
[13] = 30 min after the 1st administration of L-DOPA (25 mg/kg p.o.), Group 1 marmosets 1-3, interval 31-40 min
[14] = 30 min after the 1st administration of L-DOPA (25 mg/kg p.o.), Group 1 marmosets 1-3, interval 41-50 min
[15] = 30 min after the 1st administration of L-DOPA (25 mg/kg p.o.), Group 1 marmosets 1-3, interval 51-60 min
[16] = L-DOPA alone (Group 1, sucrose), 10 days after L-DOPA, in s (unit assumed)
[17] = L-DOPA alone (Group 1, sucrose), 20 days after L-DOPA, in s (unit assumed)
[18] = riluzole 2 × 10 mg/kg + L-DOPA (Group 2), 10 days after L-DOPA
[19] = riluzole 2 × 10 mg/kg + L-DOPA (Group 2), 10 days after L-DOPA, marmosets 4-6, interval 21-30 min, 10 mg/kg, in s (unit assumed)
[20] = riluzole 2 × 10 mg/kg + L-DOPA (Group 2), 10 days after L-DOPA, marmosets 4-6, interval 31-40 min, 10 mg/kg, in s (unit assumed)
[21] = riluzole 2 × 10 mg/kg + L-DOPA (Group 2), 10 days after L-DOPA, marmosets 4-6, interval 51-60 min, 10 mg/kg, in s (unit assumed)
[22] = riluzole 2 × 10 mg/kg + L-DOPA (Group 2), 20 days after L-DOPA, in s (unit assumed)
[23] = riluzole 2 × 10 mg/kg + L-DOPA (Group 2), 20 days after L-DOPA, marmosets 4-6, interval 1-10 min, 10 mg/kg, in s (unit assumed)

Total dyskinesic score, Average ± S.E.M. [1, 3]: 6.7 ± 2.1
Total dyskinesic score, individual values [1, 3]: 4 and 11 and 5
Total dyskinesic score, Average ± S.E.M. [1, 4]: 6.0 ± 2.1
Total dyskinesic score, individual values [1, 4]: 3 and 10 and 5
Total dyskinesic score, Average ± S.E.M. [1, 5]: 9.0 ± 2.5
Total dyskinesic score, individual values [1, 5]: 4 and 11 and 12
Total dyskinesic score, Average ± S.E.M. [1, 6]: 8.3 ± 2.32
Total dyskinesic score, individual values [1, 6]: 4 and 9 and 12
Total dyskinesic score, Average ± S.E.M. [1, 7]: 10 ± 3.0
Total dyskinesic score, individual values [1, 7]: 4 and 14 and 12
Total dyskinesic score, Average ± S.E.M. [1, 8]: 10 ± 3.0
Total dyskinesic score, individual values [1, 8]: 4 and 13 (2×)
Total dyskinesic score, Average ± S.E.M. [1, 9]: 11 ± 3.8
Total dyskinesic score, individual values [1, 9]: 4 and 17 and 2
Total dyskinesic score, Average ± S.E.M. [1, 10]: 11 ± 3.0
Total dyskinesic score, individual values [1, 10]: 5 and 17 and 12
Dyskinesias (in words) ([1]; repeated L-DOPA 25 mg/kg oral, 3 times per day, days 57, 60, 67 and 104, maximum effect on day 104): produce dyskinesias
Structure (SMILES): N[C@@H](Cc1ccc(O)c(O)c1)C(=O)O [L-DOPA, 3-(3,4-dihydroxyphenyl)-L-alanine]
Locomotory activity, large movements, Average ± S.E.M. [2, 11]: 334 + 23
Locomotory activity, medium movements, Average ± S.E.M. [2, 11]: 226 ± 13
Locomotory activity, small movements, Average ± S.E.M. [2, 11]: 40 ± 16
Locomotory activity, medium movements ([2]; 30 min after the 1st administration of L-DOPA (25 mg/kg p.o.), Group 1 marmosets 1-3, interval 1-10 min): 250 and 235 and 270
Locomotory activity, large movements [2, 12]: 350 and 385 and 275
Locomotory activity, medium movements [2, 12]: 240 and 190 and 290
Locomotory activity, large movements ([2]; 30 min after the 1st administration of L-DOPA (25 mg/kg p.o.), Group 1 marmosets 1-3, interval 21-30 min): 490 and 370 and 375
Locomotory activity, large movements [2, 13]: 290 and 230 and 335
Locomotory activity, medium movements [2, 13]: 255 and 355 and 205
Locomotory activity, large movements [2, 14]: 425 and 295 and 420
Locomotory activity, medium movements [2, 14]: 165 and 260
Locomotory activity, large movements [2, 15]: 350 and 330 and 365
Locomotory activity, medium movements [2, 15]: 215 and 240 and 200
Locomotory activity, small movements [2, 15]: 35 and 30
Effect on locomotory activity (in words) ([2]; L-DOPA after repeated treatment of 10 days and of 20 days): does not have or has little beneficial effect on the locomotory activity
Time passed in moving, large movements, Average ± S.E.M. [2, 16]: 171 ± 48
Time passed in moving, medium movements, Average ± S.E.M. [2, 16]: 160 ± 23
Time passed in moving, small movements, Average ± S.E.M. [2, 16]: 269 ± 47
Time passed in moving, small movements ([2]; L-DOPA alone (Group 1, sucrose), 10 days after L-DOPA, marmosets 1-3, interval 51-60 min): 205 and 225 and 240
Time passed in moving, medium movements ([2]; L-DOPA alone (Group 1, sucrose), 10 days after L-DOPA, marmosets 1-3, interval 51-60 min, in s (unit assumed)): 165 and 305 and 235
Time passed in moving, large movements, Average ± S.E.M. [2, 17]: 283 ± 50
Time passed in moving, medium movements, Average ± S.E.M. [2, 17]: 235 ± 37
Time passed in moving, small movements, Average ± S.E.M. [2, 17]: 83 ± 19
Effect on locomotory activity (in words) ([2]; acute administration of L-DOPA 25 mg/kg, 15 days after the 3rd injection of MPTP): increases the locomotory activity by decreasing the small movements and increasing the large movements

Structure (SMILES): Nc1nc2ccc(OC(F)(F)F)cc2s1 [riluzole, 2-amino-6-trifluoromethoxybenzo-thiazole]
Effect on locomotory activity (in words) ([2]; riluzole 10 mg/kg oral, twice per day for 72 days, after 10 and 20 days of treatment with L-DOPA): capable of improving the locomotory activity
Time passed in moving, large movements, Average ± S.E.M. [2, 18]: 410 ± 25^+++
Time passed in moving, small movements, Average ± S.E.M. [2, 18]: 57 ± 16^+++
Time passed in moving, medium movements, Average ± S.E.M. ([2]; riluzole 2 × 10 mg/kg + L-DOPA (Group 2), 10 days after L-DOPA, in s (unit assumed)): 134 ± 13
Time passed in moving, small movements ([2]; riluzole 2 × 10 mg/kg + L-DOPA (Group 2), 10 days after L-DOPA, marmosets 4-6, interval 1-10 min): 5
Time passed in moving, large movements ([2]; riluzole 2 × 10 mg/kg + L-DOPA (Group 2), 10 days after L-DOPA, marmosets 4-6, interval 1-10 min, 10 mg/kg, in s (unit assumed)): 560 and 495 and 520
Time passed in moving, large movements ([2]; riluzole 2 × 10 mg/kg + L-DOPA (Group 2), 10 days after L-DOPA, marmosets 4-6, interval 11-20 min, 10 mg/kg, in s (unit assumed)): 565 and 455 and 370
Time passed in moving, large movements [2, 19]: 540 and 355 and 435
Time passed in moving, medium movements [2, 19]: 60 and 120 and 115
Time passed in moving, large movements [2, 20]: 460 and 240 and 385
Time passed in moving, medium movements [2, 20]: 140 and 215 and 190
Time passed in moving, medium movements ([2]; riluzole 2 × 10 mg/kg + L-DOPA (Group 2), 10 days after L-DOPA, marmosets 4-6, interval 41-50 min, 10 mg/kg, in s (unit assumed)): 155 and 205 and 175
Time passed in moving, large movements [2, 21]: 430 and 265 and 310
Time passed in moving, medium movements [2, 21]: 135 and 125 and 190
Time passed in moving, medium movements, Average ± S.E.M. ([2]; riluzole 2 × 10 mg/kg + L-DOPA (Group 2), 20 days after L-DOPA): 148 ± 13^+
Time passed in moving, large movements, Average ± S.E.M. [2, 22]: 365 ± 37
Time passed in moving, small movements, Average ± S.E.M. [2, 22]: 67 ± 30
Time passed in moving, large movements [2, 23]: 445 and 335 and 490
Time passed in moving, medium movements [2, 23]: 155 and 140 and 80
Time passed in moving, medium movements ([2]; riluzole 2 × 10 mg/kg + L-DOPA (Group 2), 20 days after L-DOPA, marmosets 4-6, interval 51-60 min, 10 mg/kg, in s (unit assumed)): 90 and 180 and 105
